Laboratory results: patent US9976170B2, “Method for evaluating bacterial cell wall integrity” (UNIVERSIDAD AUTONOMA DE MADRID, priority 2011, dated 2018)
In brackets after ≈: the same amount, converted by molar mass. Values belong to the compound of their own block, whether it stands above or below them.

Tests used:
Assay type in all cases: cell-based
[1] = test system: Escherichia coli, ceftazidime-sensitive strain with intermediate sensitivity to ampicillin; test: MIC by microdilution and/or E-test
Source text: (§1) The strains and the antibiotics used were: • Gram+ • Enterococcus faecalis.
(§2) The doses of antibiotic applied were 0, the MIC determined in the Microbiology Laboratory by means of the microdilution and/or E-test technique, and those of the cutoff points of sensitivity and resistance indicated by the Clinical and Laboratory Standards Institute (CLSI) for each strain. A dose 10 times higher than the MIC was also used.

[2] = test system: Acinetobacter baumannii, imipenem- and ceftazidime-resistant strain; test: MIC by microdilution and/or E-test
Source text: as §1, §2

[3] = test system: Escherichia coli, ampicillin- and ceftazidime-resistant strain; test: MIC by microdilution and/or E-test
Source text: as §1, §2

[4] = test system: Acinetobacter baumannii, imipenem-sensitive strain with intermediate sensitivity to ceftazidime; test: MIC by microdilution and/or E-test
Source text: as §1, §2

[5] = test system: Escherichia coli, ceftazidime-sensitive strain with intermediate sensitivity to ampicillin; test: technique for evaluating cell wall integrity (lysis solution, nucleoid release, fluorescence microscopy); settings: 60 minutes
Protocol: (§3) Different bacterial strains grown on a dish with Mueller-Hinton medium for 24 hours were subsequently exposed to a β-lactam antibiotic for 60 minutes in Mueller-Hinton liquid medium at 37° C., under stirring, and were finally processed by means of the technique for evaluating cell wall integrity according to the present invention.
as §2

[6] = test system: Acinetobacter baumannii, imipenem- and ceftazidime-resistant strain; test: as above; settings: 60 minutes
Protocol: as §3, §2

[7] = test system: Escherichia coli, ampicillin- and ceftazidime-resistant strain; test: as above; settings: 60 minutes
Protocol: as §3, §2

[8] = test system: Acinetobacter baumannii, imipenem-sensitive strain with intermediate sensitivity to ceftazidime; test: as above; settings: 60 minutes
Protocol: as §3, §2

MIC [1]: 1 µg/mL (≈ 1.83 µM)
MIC [2]: > 32 µg/mL
MIC [3]: 32 µg/mL (≈ 58.5 µM)
MIC [4]: 12 µg/mL (≈ 22 µM)
SMILES: CC(C)(O/N=C(\C(=O)N[C@@H]1C(=O)N2C(C(=O)[O-])=C(C[n+]3ccccc3)CS[C@H]12)c1csc(N)n1)C(=O)O [ceftazidime]
background of extracellular DNA fragments ([5]; 1 μg/mL (MIC)): some background
filamentous cells ([5]; 1 μg/mL (MIC)): 99%
heavily lysed cells ([5]; 1 μg/mL (MIC)): 97%
background of extracellular DNA fragments ([5]; 8 μg/mL): more background
background of extracellular DNA fragments ([5]; 10 μg/mL): extensive background
empty capsules ([5]; 10 μg/mL): 10.5%
lysed cells with nucleoid with fragmented DNA ([5]; 10 μg/mL): 11%
well lysed cells ([5]; 10 μg/mL): 76.5%
empty capsules ([5]; 20 and 32 μg/mL): 25.3%
lysed cells with nucleoid with fragmented DNA ([5]; 20 and 32 μg/mL): 20%
non-lysed cells ([5]; 20 and 32 μg/mL): 2%
well lysed cells ([5]; 20 and 32 μg/mL): 52.7%
background of extracellular DNA fragments ([6]; 2.560 μg/mL): same background persists
cells lysed with nucleoids with fragmented DNA ([6]; 2.560 μg/mL): 25%
cells not lysed ([6]; 2.560 μg/mL): 5%
cells with a large halo ([6]; 2.560 μg/mL): 63.5%
cells with a small halo ([6]; 2.560 μg/mL): 6.5%
very elongated and filamentous cells ([6]; 8 μg/mL): 22%
background of extracellular DNA fragments ([6]; 256 μg/mL): subtle background
cells not lysed ([6]; 256 μg/mL): 4.7%
cells with a small halo ([6]; 256 μg/mL): 63%
heavily lysed cells ([6]; 256 μg/mL): 32.3%
background of extracellular DNA fragments ([6]; 20 and 32 μg/mL): without background
cells with a large halo ([6]; 20 and 32 μg/mL): 1.5%
cells with a small halo ([6]; 20 and 32 μg/mL): 84.5%
filamentous cells ([6]; subsequent doses (20, 32, 256, 2.560 μg/mL)): 90%
filamentous cells ([7]; 8 μg/mL): 13%
well lysed cells ([7]; 8 μg/mL): 1%
background of extracellular DNA fragments ([7]; 20 μg/mL): without background
filamentous cells ([7]; 20 μg/mL): 99%
non-lysed cells ([7]; 20 μg/mL): 94%
well lysed cells ([7]; 20 μg/mL): 5%
background of extracellular DNA fragments ([7]; 32 μg/mL (MIC)): subtle background
empty capsules ([7]; 32 μg/mL (MIC)): 1%
filamentous cells ([7]; 32 μg/mL (MIC)): 98%
lysed cells with nucleoid with fragmented DNA ([7]; 32 μg/mL (MIC)): 3%
non-lysed cells ([7]; 32 μg/mL (MIC)): 92%
well lysed cells ([7]; 32 μg/mL (MIC)): 4%
background of extracellular DNA fragments ([7]; 320 μg/mL): subtle background
cells lysed with nucleoid with fragmented DNA ([7]; 320 μg/mL): 0.5%
filamentous cells ([7]; 320 μg/mL): 99%
heavily lysed cells ([7]; 320 μg/mL): 3.5%
moderately lysed cells ([7]; 320 μg/mL): 95%
non-lysed cells ([7]; 320 μg/mL): 1%
background of extracellular DNA fragments ([8]; 8 μg/mL): without background
filamentous cells ([8]; 8 μg/mL): 82%
lysed cells with a small halo ([8]; 8 μg/mL): 40%
lysed cells with nucleoid with fragmented DNA ([8]; 8 μg/mL): 1%
filamentous cells ([8]; 12 μg/mL (MIC) and 20 μg/mL): 95%
background of extracellular DNA fragments ([8]; 12 μg/mL (MIC)): subtle background
lysed cells with a large halo ([8]; 12 μg/mL (MIC)): 1.5%
lysed cells with a small halo ([8]; 12 μg/mL (MIC)): 94.5%
non-lysed cells ([8]; 12 μg/mL (MIC)): 4%
lysed cells with a large halo ([8]; 20 μg/mL): 3%
lysed cells with a small halo ([8]; 20 μg/mL): 91.5%
non-lysed cells ([8]; 20 μg/mL): 5.5%
background of extracellular DNA fragments ([8]; 32 μg/mL): more background
elongated cells ([8]; 32 μg/mL): 90%
lysed cells with a large halo ([8]; 32 μg/mL): 6%
lysed cells with a small halo ([8]; 32 μg/mL): 88%
non-lysed cells ([8]; 32 μg/mL): 6%
background of extracellular DNA fragments ([8]; 120 μg/mL): extensive background
filamentous cells ([8]; 120 μg/mL): 91%
lysed cells with a large halo ([8]; 120 μg/mL): 23%
lysed cells with a small halo ([8]; 120 μg/mL): 67%
lysed cells with nucleoid with fragmented DNA ([8]; 120 μg/mL): 36%
non-lysed cells ([8]; 120 μg/mL): 7%

MIC [2]: > 32 µg/mL
MIC [4]: 0.38 µg/mL (≈ 1.27 µM)
SMILES: C[C@@H](O)[C@H]1C(=O)N2C(C(=O)O)=C(SCCN=CN)C[C@H]12 [imipenem]
cells with a large halo ([6]; 16 μg/mL): 1%
cells with a small halo ([6]; 16 μg/mL): 1%
lysed cells with nucleoid with fragmented DNA ([6]; 16 μg/mL): 0.5%
cells not lysed ([6]; 320 μg/mL): 92%
heavily lysed cells ([6]; 320 μg/mL): 3.5%
lysed cells with a small halo ([6]; 320 μg/mL): 2.5%
lysed cells with nucleoid with fragmented DNA ([6]; 320 μg/mL): 2%
cells with a large halo ([8]; 4 μg/mL): 13.5%
faint empty capsules ([8]; 4 μg/mL): 12%
lysed cells with nucleoid with fragmented DNA ([8]; 4 μg/mL): 66%
non-lysed cells ([8]; 4 μg/mL): 8.5%
cells with a large halo ([8]; 8 μg/mL): 6%
faint empty capsules ([8]; 8 μg/mL): 19.5%
lysed cells with nucleoid with fragmented DNA ([8]; 8 μg/mL): 69.5%
non-lysed cells ([8]; 8 μg/mL): 5%
cells with a large halo ([8]; 16 μg/mL): 5%
faint empty capsules ([8]; 16 μg/mL): 15%
lysed cells with nucleoid with fragmented DNA ([8]; 16 μg/mL): 73.5%
non-lysed cells ([8]; 16 μg/mL): 6.5%
